Key:
TBK1 = target: T1, TBK1 (Homo sapiens, UniProt Q9UHD2); test: TBK biochemical assay; conditions: 10 point 1:4 dose response, 30 uM top concentration, 90 min at 25° C., LabChip EZ Reader II; read-out: TBK1_IC50
T1 sequence (Q9UHD2 1-729): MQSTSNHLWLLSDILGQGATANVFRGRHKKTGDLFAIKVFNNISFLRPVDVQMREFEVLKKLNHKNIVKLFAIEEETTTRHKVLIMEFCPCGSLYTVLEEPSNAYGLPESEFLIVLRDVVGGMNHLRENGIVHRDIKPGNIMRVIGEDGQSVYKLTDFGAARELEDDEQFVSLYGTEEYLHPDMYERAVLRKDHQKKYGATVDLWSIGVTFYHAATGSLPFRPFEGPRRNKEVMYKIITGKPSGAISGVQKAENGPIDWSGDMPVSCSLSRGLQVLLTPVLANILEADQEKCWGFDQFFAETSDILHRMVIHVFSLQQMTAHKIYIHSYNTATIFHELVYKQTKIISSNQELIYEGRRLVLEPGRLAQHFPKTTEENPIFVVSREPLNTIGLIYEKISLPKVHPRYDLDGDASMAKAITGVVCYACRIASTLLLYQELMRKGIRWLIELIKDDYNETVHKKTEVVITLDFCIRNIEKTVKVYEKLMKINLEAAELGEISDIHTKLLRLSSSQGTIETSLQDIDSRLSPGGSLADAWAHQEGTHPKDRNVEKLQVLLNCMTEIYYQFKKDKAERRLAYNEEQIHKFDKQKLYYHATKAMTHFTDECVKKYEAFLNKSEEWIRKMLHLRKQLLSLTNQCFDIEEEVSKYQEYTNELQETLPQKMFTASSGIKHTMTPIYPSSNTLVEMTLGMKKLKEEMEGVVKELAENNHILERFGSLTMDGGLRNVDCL
Outline: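 Read-out was a Caliper LabChip mobility-shift assay, run after a 90-min, 25 °C reaction of TBK1 with substrate and compounds, quenched with stop buffer. Control wells received staurosporine at 10 uM final.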

IKKε = target: T2, IKKε (Homo sapiens, UniProt Q14164); test: IKKε biochemical assay; conditions: 10 point 1:4 dose response, 30 uM top concentration, 90 min at 25° C., LabChip EZ Reader II; read-out: IKKε_IC50
T2 sequence (Q14164 1-716): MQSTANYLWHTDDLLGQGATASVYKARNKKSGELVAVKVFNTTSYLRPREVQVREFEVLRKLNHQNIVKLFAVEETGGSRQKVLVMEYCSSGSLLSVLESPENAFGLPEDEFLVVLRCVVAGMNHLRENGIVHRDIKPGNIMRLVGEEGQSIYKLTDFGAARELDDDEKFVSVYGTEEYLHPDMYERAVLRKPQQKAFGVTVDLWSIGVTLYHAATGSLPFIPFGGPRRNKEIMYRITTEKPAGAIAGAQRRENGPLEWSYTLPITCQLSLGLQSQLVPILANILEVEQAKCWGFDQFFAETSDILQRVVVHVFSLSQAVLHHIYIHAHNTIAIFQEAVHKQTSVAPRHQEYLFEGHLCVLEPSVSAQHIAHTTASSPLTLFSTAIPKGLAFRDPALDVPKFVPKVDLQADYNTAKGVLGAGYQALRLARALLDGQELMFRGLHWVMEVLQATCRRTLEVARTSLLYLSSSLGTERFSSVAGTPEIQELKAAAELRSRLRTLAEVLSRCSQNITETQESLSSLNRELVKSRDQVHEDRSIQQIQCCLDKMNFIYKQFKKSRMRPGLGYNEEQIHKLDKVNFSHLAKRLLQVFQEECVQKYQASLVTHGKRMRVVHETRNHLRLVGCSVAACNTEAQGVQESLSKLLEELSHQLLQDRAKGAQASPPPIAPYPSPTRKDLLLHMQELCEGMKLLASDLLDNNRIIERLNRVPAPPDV
Outline: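 Mobility-shift LabChip read-out followed a 90 min, 25° C. reaction of IKKε with substrate and test compound, with DMSO held at 1% final. Reactions were ended with stop buffer. Wells with 10 uM final staurosporine defined complete inhibition, and DMSO-only wells the uninhibited level.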

Structure (SMILES)	IC50 (TBK1) [nM]	IC50 (IKKε) [nM]
COc1nc(Nc2nccc(-c3ccc(OC4CCN(C(=O)c5cocn5)CC4)c(C#N)c3)n2)ccc1C(=O)N(C)C [Example 77, 6-([4-[3-cyano-4-([1-[(1,3-oxazol-4-yl)carbonyl]piperidin-4-yl]oxy)phenyl]pyrimidin-2-yl]amino)-2-methoxy-N,N-dimethylpyridine-3-carboxamide]	< 100	< 100
COc1cc(Nc2nccc(-c3ccc(OC4CCN(C(=O)[C@H](C)O)CC4(F)F)c(C#N)c3)n2)ncc1N1CCN(C2COC2)CC1 (stereo partly drawn) [Example 322, 2-([33-difluoro-1-[(2S)-2-hydroxypropanoyl]piperidin-4-yl]oxy)-5-[2-([4-methoxy-5-[4-(oxetan-3-yl)piperazin-1-yl]pyridin-2-yl]amino)pyrimidin-4-yl]benzonitrile]	< 100	< 100
COc1cc(Nc2nccc(-c3ccc(OC4CCN(C(=O)[C@H](C)O)CC4(F)F)c(C#N)c3)n2)ccc1N1CCN(C2COC2)CC1 (stereo partly drawn) [Example 217, 2-([3,3-difluoro-1-[(2S)-2-hydroxypropanoyl]piperidin-4-yl]oxy)-5-[2-([3-methoxy-4-[4-(oxetan-3-yl)piperazin-1-yl]phenyl]amino)pyrimidin-4-yl]benzonitrile]	< 100	< 100
COc1cc(Nc2nccc(-c3ccc(OC4CCOCC4)c(C#N)c3)n2)cnc1N1CCN(C)CC1 [Example 54, 5-(2-[[5-methoxy-6-(4-methylpiperazin-1-yl)pyridin-3-yl]amino]pyrimidin-4-yl)-2-(oxan-4-yloxy)benzonitrile]	< 100	< 100
CC(O)C(=O)N1CC[C@H](Oc2ccc(-c3nc(Nc4ccc(N5CCN(C6COC6)CC5)cc4)ncc3F)cc2C#N)[C@H](F)C1 (stereo partly drawn) [Example 295, 2-{[(3R,4S)-3-fluoro-1-(2-hydroxypropanoyl)piperidin-4-yl]oxy}-5-[5-fluoro-2-({4-[4-(oxetan-3-yl)piperazin-1-yl]phenyl}amino)pyrimidin-4-yl]benzonitrile]	< 100	< 100
COc1nc(Nc2nccc(-c3ccc(OC4(C)CCN(C(=O)[C@H](C)O)CC4(F)F)c(C#N)c3)n2)ccc1N1CCN(C2COC2)CC1 (stereo partly drawn) [Example 265, 2-[3,3-Difluoro-1-((S)-2-hydroxy-propionyl)-4-methyl-piperidin-4-yloxy]-5-{2-[6-methoxy-5-(4-oxetan-3-yl-piperazin-1-yl)-pyridin-2-ylamino]-pyrimidin-4-yl}-benzonitrile]	< 100	< 100
COc1nc(Nc2nccc(-c3ccc(N4CC5(CCNCC5)C4)c(C#N)c3)n2)ccc1N1CCN(C2COC2)CC1 [Example 312, 2-(2,7-Diaza-spiro[3.5]non-2-yl)-5-{2-[6-methoxy-5-(4-oxetan-3-yl-piperazin-1-yl)-pyridin-2-ylamino]-pyrimidin-4-yl}-benzonitrile]	100 to 1000	100 to 1000
COc1nc(Nc2ncc(C)c(-c3ccc(OC4CCN(C(=O)[C@H](C)O)CC4(F)F)c(C#N)c3)n2)ccc1N1CCN(C2COC2)CC1 (stereo partly drawn) [Example 283, 2-([33-difluoro-1-[(2S)-2-hydroxypropanoyl]piperidin-4-yl]oxy)-5-[2-([6-methoxy-5-[4-(oxetan-3-yl)piperazin-1-yl]pyridin-2-yl]amino)-5-methylpyrimidin-4-yl]benzonitrile]	< 100	< 100
COc1cc(Nc2nccc(-c3cc(C#N)c(OC4CCOCC4)cn3)n2)ncc1C(=O)N(C)C [Example 51, 6-([4-[4-cyano-5-(oxan-4-yloxy)pyridin-2-yl]pyrimidin-2-yl]amino)-4-methoxy-N,N-dimethylpyridine-3-carboxamide]	> 5000	> 5000
C[C@H](O)C(=O)N1CCC(Oc2ccc(-c3nc(Nc4ccc(N5CCN(C6COC6)CC5)cc4)ncc3F)cc2C#N)C(F)(F)C1 (stereo partly drawn) [Example 300, 2-({3,3-difluoro-1-[(2S)-2-hydroxypropanoyl]piperidin-4-yl}oxy)-5-[5-fluoro-2-({4-[4-(oxetan-3-yl)piperazin-1-yl]phenyl}amino)pyrimidin-4-yl]benzonitrile]	< 100	< 100
COc1cccc(Nc2nccc(-c3ccc(O[C@H]4CCN(C(=O)[C@H](C)O)CC4(F)F)c(C#N)c3)n2)n1 [Example 240, 2-[[(4S)-3,3-difluoro-1-[(2S)-2-hydroxypropanoyl]piperidin-4-yl]oxy]-5-[2-[(6-methoxypyridin-2-yl)amino]pyrimidin-4-yl]benzonitrile]	100 to 1000	100 to 1000

The next lines start with the values.

IC50 (TBK1) [nM]	IC50 (IKKε) [nM]	Structure (SMILES)
< 100	< 100	CN1CCN(c2ccc(Nc3nccc(-c4ccc(OC5CCOCC5)c(C#N)c4)n3)cc2)CC1 [Example 163, 5-{2-[4-(4-Methyl-piperazin-1-yl)-phenylamino]-pyrimidin-4-yl}-2-(tetrahydro-pyran-4-yloxy)-benzonitrile]
< 100	< 100	COc1nc(Nc2nccc(-c3ccc(N4CC5(CCN(C(=O)[C@@H](O)CO)CC5)C4)c(C#N)c3)n2)ccc1N1CCN(C2COC2)CC1 [Example 315, 2-[7-((S)-2,3-Dihydroxy-propionyl)-2,7-diaza-spiro[3.5]non-2-yl]-5-{2-[6-methoxy-5-(4-oxetan-3-yl-piperazin-1-yl)-pyridin-2-ylamino]-pyrimidin-4-yl}-benzonitrile]
100 to 1000	100 to 1000	C[C@@H](O)C(=O)N1CC(COc2ccc(-c3ccnc(Nc4ccc(N5CCN(C6COC6)CC5)cc4)n3)cc2C#N)C1 [Example 278, 2-([1-[(2R)-2-hydroxypropanoyl]azetidin-3-yl]methoxy)-5-[2-([4-[4-(oxetan-3-yl)piperazin-1-yl]phenyl]amino)pyrimidin-4-yl]benzonitrile]
< 100	< 100	COc1nc(Nc2nccc(-c3ccc(OC4CCN(C(=O)[C@@H](C)O)CC4(F)F)c(C#N)c3)n2)ccc1N1CCN(C2COC2)[C@@H](C)C1 (stereo partly drawn) [Example 125, 2-[3,3-Difluoro-1-((R)-2-hydroxy-propionyl)-piperidin-4-yloxy]-5-{2-[6-methoxy-5-((S)-3-methyl-4-oxetan-3-yl-piperazin-1-yl)-pyridin-2-ylamino]-pyrimidin-4-yl}-benzonitrile]
< 100	< 100	COc1nc(Nc2nccc(-c3ccc(OC4CCOCC4)c(C#N)c3)n2)ccc1C1CCN(C)C1 (stereo not drawn) [Example 42, 5-(2-[[6-methoxy-5-(1-methylpyrrolidin-3-yl)pyridin-2-yl]amino]pyrimidin-4-yl)-2-(oxan-4-yloxy)benzonitrile]
< 100	< 100	COc1nc(Nc2nccc(-c3ccc(O[C@H]4CCN(C(=O)[C@H](C)O)CC4(F)F)c(C#N)c3)n2)ccc1N1CCN(C2COC2)[C@@H](C)C1 [Example 247, 2 2-[(S)-3,3-Difluoro-1-((S)-2-hydroxy-propionyl)-piperidin-4-yloxy]-5-{2-[6-methoxy-5-((S)-3-methyl-4-oxetan-3-yl-piperazin-1-yl)-pyridin-2-ylamino]-pyrimidin-4-yl}-benzonitrile]
100 to 1000	100 to 1000	C[C@@H](O)C(=O)N1CCC(Oc2ccc(-c3ccnc(Nc4ccccn4)n3)cc2C#N)C(F)(F)C1 (stereo partly drawn) [Example 221, 2-[3,3-Difluoro-1-((R)-2-hydroxy-propionyl)-piperidin-4-yloxy]-5-[2-(pyridin-2-ylamino)-pyrimidin-4-yl]-benzonitrile]

From patent US20230019491A1, “PYRIMIDINE TBK/IKKe INHIBITOR COMPOUNDS AND USES THEREOF” (Merck Patent GmbH, priority 2017, published 2023)
